Results taken from patent US8481521B2, “Methods of treating cell proliferative disorders” (Rigel Pharmaceuticals, Inc., priority 2005, dated 2013).

Columns and labels:
Flt-3 = Flt-3 phosphorylation in MV4-11 tumor lysates (immunoprecipitation, Western blot); type: in vivo, human; conditions: 40 mg/kg VII, about two hours after final dose, vs vehicle
Procedure: Panel A is detection of phosphorylated Flt-3 in MV4-11 tumor lysates from mice approximately two hours after the final dose of VII or vehicle using anti-phosphotyrosine antibody on the left and anti-phospho-Flt-3 specific antibody on the right side of the blot. Additionally, a reprobe of the blot for the total Flt-3 levels are shown in Panel B.
Western blot analysis of phosphorylated Flt-3 was carried out as follows.
3. Weigh and normalize in 250 mg/l ml ice-cold RIPA buffer (Santa Cruz Biotechnology, sc-24948) containing protease inhibitor and phosphotase inhibitor cocktail (Sigma, P5726, 1 ml/100 ml lysis buffer).
Immunoprecipitation. • 1. Take 1 mg tumor lysate and add primary antibody 2 ug (Anti-Flt-3 S18, Santa Cruz, #sc-480) adjust volume to 500 ul with lysis buffer. Incubate with gentle rocking for 1 h at 4° C. • 2. Add protein A/G plus-agarose beads (Santa Cruz, SC-2003) 40 ul. Incubate with gentle rocking for 1 h at RT. • 3. Microcentrifuge for 30 second at 4° C. Wash pellet three times with 500 ul of 1× lysis buffer. Keep on ice during washes. • 4. Resuspend the pellet with 30 ul 2× Tris-Glysine SDS loading buffer+5 ul reducing agent 10× (Invitrogen). • 5. Heat the sample to 95-100° C. for 5 minutes. • 6. Store the sample at −80° C.
Western Blot Procedure. • 1. Load 20 ul of the sample on 8% Tris-Glysine gel. • 2. Run in 1× Tris-glysine SDS running buffer. • 3. […]

[1] = test system: phosphorylated histone H3 (phH3); experiment: Phosphorylated histone H3 immunohistochemistry of MV4-11 tumor xenografts; type: in vivo, human; conditions: vs vehicle treated MV4-11 xenografts
Procedure: Proliferation was assessed ex vivo in formalin fixed tumor sections from three randomly selected mice from this study using immunohistochemical staining of human-specific phosphorylated histone H3 (phH3) as a marker for tumor cell proliferation. Human phH3 expression was reduced in tumor sections in a dose-dependent manner following treatment with VII.

## COc1cc(Nc2ncc(F)c(Nc3ccc4c(n3)N(COP(=O)(O)O)C(=O)C(C)(C)O4)n2)cc(OC)c1OC [Compound 4, N4-(2,2-dimethyl-4-[(dihydrogenphosphonoxy)methyl]-3-oxo-5-pyrido[1,4]oxazin-6-yl)-5-fluoro-N2-(3,4,5-trimethoxyphenyl)-2,4-pyrimidinediamine]
Flt-3
  Constitutive phosphorylation of Flt-3 in tumors: reduced
[1]; 20 mg/kg VII
  inhibition of phH3 staining: 53%
[1]; 40 mg/kg VII
  inhibition of phH3 staining: 71%
